Data as given in paper PMC6269910 (Molecules, 2013).

Key:
[1] = tested on: 60 human tumor cell lines; assay: NCI60 in vitro cancer screen; assay type: cell-based; conditions: 10 µM; variety of cell lines
Description: The selected compound N-(ethylcarbamothioyl)-4-[5-(4-methylphenyl)-3-(trifluoromethyl)-1H-pyrazol-1-yl]benzenesulfonamide (1a) was screened by the National Institutes of Health (NIH) for anticancer activity against 60 human tumor cell lines. Most of the compounds in the series of structures submitted include one or more functional groups that have been found troublesome to the development of successful drug candidates. In addition, the selection criteria guidance available at the following DTP web site: http://www.dtp.nci.nih.gov/docs/misc/common_files/guidelines.html. For NCI criteria, compounds, which reduce the growth of any one of the cell lines to approximately 32% or less, are passed on for evaluation in the full panel of cell lines over a 5-log dose range.
The methodology of the NCI60 in vitro cancer screen can be found on-line at http://dtp.nci.nih.gov/branches/btb/ivclsp.html and can be reviewed on their web site.

[2] = tested on: lipid peroxidation in stomach; assay: Lipid peroxidation in stomach (TBARS); assay type: in vivo, mice; conditions: 100 mg/kg, 8 h after analgesic test
myeloperoxidase (MPO) = assay: MPO activity in liver, kidney, colon, brain; assay type: in vivo, mice; conditions: 72 h
Experimental: MPO is an enzyme that is found predominantly in the azurophilic granules of polymorphonuclear leukocytes (PMN). […] MPO activity was measured in tissues in a procedure similar to that documented by […] et al.

Lipid peroxidation [2]: 387.7 ± 12.8 nmol TBARS/g wet weight | MPO (myeloperoxidase (MPO); brain, 100 mg/kg oral): 0.73 ± 0.32 U/gtissue | MPO (myeloperoxidase (MPO); brain, 200 mg/kg oral): 1.95 ± 0.60 U/gtissue | MPO (myeloperoxidase (MPO); colon, 100 mg/kg oral): 0.27 ± 0.13 U/gtissue | MPO (myeloperoxidase (MPO); colon, 200 mg/kg oral): 0.38 ± 0.14 U/gtissue | MPO (myeloperoxidase (MPO); kidney, 100 mg/kg oral): 3.18 ± 2.66 U/g tissue | MPO (myeloperoxidase (MPO); kidney, 200 mg/kg oral): 4.59 ± 1.01 U/g tissue | MPO (myeloperoxidase (MPO); liver, 100 mg/kg oral): 0.50 ± 0.28 U/gtissue | MPO (myeloperoxidase (MPO); liver, 200 mg/kg oral): 0.15 ± 0.08 U/gtissue | melting point: 215 to 218 °C
Structure (SMILES): CCNC(=S)NS(=O)(=O)c1ccc(-n2nc(C(F)(F)F)cc2-c2ccc(C)cc2)cc1 [Compound 1a, N-(Ethylcarbamothioyl)-4-[5-(4-methylphenyl)-3-(trifluoromethyl)-1H-pyrazol-1-yl] benzenesulfonamide]
cell growth inhibition [1]: negligible
